{"source": "patent US20200315984A1", "about": "(priority 2013, published 2020)", "key": {"[1]": {"details": "cited from earlier work"}, "[2]": {"assay": "Extrapolated absorption data for dual-film dosage", "assay_type": "in vivo", "details": "human, plasma, dual-layered film; for AUC: local pH 3.5 and 5.5, read-out: Naloxone AUC; for Cmax: local pH 3.5 and 5.5, read-out: Naloxone Cmax", "procedure": "A dual-film dosage is prepared, with the first film layer having a local pH of about 3.5 and containing an antagonist therein, and the second film layer having a local pH of about 5.5 and containing an agonist therein. In this dual-film dosage, the first film layer (having the antagonist) is a fast-dissolving film, while the second film layer (having the agonist) is a moderate dissolving film."}, "[3]": {"details": "other: sublingual or buccal film"}, "[4]": {"details": "other: sublingual/buccal film dissolved in the oral cavity"}}, "note": "Like-named read-outs stand apart in the source and are kept apart here.", "data": [{"smiles": "C=CCN1CC[C@]23c4c5ccc(O)c4O[C@H]2C(=O)CC[C@@]3(O)[C@H]1C5", "note": "[naloxone]", "values": [{"measurement": "pKa", "setting": "[1]", "result": "about 7.94"}, {"measurement": "AUC", "setting": "[2]; [3]", "result": "0.0905 to 0.724", "unit": "ng·h/mL"}, {"measurement": "Cmax", "setting": "[2]; [3]", "result": "0.0325 to 0.26", "unit": "ng/mL"}, {"measurement": "AUC", "setting": "[2]; [4]", "result": "0.0906 to 0.724", "unit": "ng·h/mL"}, {"measurement": "Cmax", "setting": "[2]; [4]", "result": "0.0325 to 0.26", "unit": "ng/mL"}]}]}
